Test results taken from ChEMBL document CHEMBL3045486, “Potent, Selective Adenosine A1 Agonists as Potential Analgesics” (Med Chem Res, 2004).
pKi: −log10 of the molar value.

Key:
[1] = biological target: T1, Adenosine receptor A1 (Homo sapiens) (UniProt P30542); assay: Intrinsic efficacy at Homo sapiens (human) adenosine A1 receptor expressed in CHO cells assessed as increase in intracellular calcium level by FLIPR assay relative to NECA; assay type: functional, cell-based
T1 sequence (whole entry): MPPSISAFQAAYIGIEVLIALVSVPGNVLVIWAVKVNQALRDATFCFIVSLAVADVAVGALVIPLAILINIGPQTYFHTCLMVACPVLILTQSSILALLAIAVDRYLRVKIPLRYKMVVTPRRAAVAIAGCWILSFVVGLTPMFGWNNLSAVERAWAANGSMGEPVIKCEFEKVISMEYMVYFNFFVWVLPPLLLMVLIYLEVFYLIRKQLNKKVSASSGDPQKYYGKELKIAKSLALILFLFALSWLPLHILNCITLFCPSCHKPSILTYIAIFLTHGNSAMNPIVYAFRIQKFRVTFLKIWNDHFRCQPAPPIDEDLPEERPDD

[2] = biological target: T2, Adenosine receptor A1 (Homo sapiens, UniProt P30542); assay: Agonist activity at Homo sapiens (human) adenosine A1 receptor expressed in CHO cells; assay type: cell-based
T2 sequence (P30542 whole entry): T1 sequence (whole entry)

[3] = biological target: T1, Adenosine receptor A1 (Homo sapiens); assay: Agonist activity at Homo sapiens (human) adenosine A1 receptor expressed in CHO cells relative to NECA; assay type: cell-based
[4] = biological target: T3, Adenosine receptor A2b (Homo sapiens) (UniProt P29275); assay: Agonist activity at Homo sapiens (human) adenosine A2b receptor expressed in CHO cells relative to NECA; assay type: cell-based
T3 sequence (whole entry): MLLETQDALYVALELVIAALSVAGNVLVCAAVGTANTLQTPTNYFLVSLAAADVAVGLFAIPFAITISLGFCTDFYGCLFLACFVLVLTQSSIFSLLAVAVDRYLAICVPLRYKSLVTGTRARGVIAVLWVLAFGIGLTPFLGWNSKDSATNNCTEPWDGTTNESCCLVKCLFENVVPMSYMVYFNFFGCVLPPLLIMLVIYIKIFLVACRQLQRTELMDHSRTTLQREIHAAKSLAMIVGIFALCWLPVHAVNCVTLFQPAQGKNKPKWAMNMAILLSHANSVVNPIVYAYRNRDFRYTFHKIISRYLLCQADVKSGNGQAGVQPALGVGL

[5] = biological target: T4, Adenosine receptor A2a (Homo sapiens, UniProt P29274); assay: Agonist activity at Homo sapiens (human) adenosine A2a receptor expressed in CHO cells relative to NECA; assay type: cell-based
[6] = biological target: T5, Adenosine receptor A3 (Homo sapiens, UniProt P0DMS8); assay: Agonist activity at Homo sapiens (human) adenosine A3 receptor expressed in CHO cells; assay type: cell-based
T5 sequence (P0DMS8 whole entry): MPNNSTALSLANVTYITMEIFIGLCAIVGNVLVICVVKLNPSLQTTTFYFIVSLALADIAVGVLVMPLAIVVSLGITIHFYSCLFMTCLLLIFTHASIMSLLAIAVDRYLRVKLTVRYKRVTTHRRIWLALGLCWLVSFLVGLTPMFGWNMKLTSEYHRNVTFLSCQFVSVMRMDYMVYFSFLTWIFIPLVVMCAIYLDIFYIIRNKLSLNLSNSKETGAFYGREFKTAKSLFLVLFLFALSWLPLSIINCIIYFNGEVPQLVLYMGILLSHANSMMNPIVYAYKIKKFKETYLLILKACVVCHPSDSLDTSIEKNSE

[7] = biological target: T6, Adenosine receptor A2b (Homo sapiens, UniProt P29275); assay: Agonist activity at Homo sapiens (human) adenosine A2b receptor expressed in CHO cells; assay type: cell-based
T6 sequence (P29275 whole entry): T3 sequence (whole entry)

[8] = biological target: T7, Adenosine receptor A3 (Homo sapiens) (UniProt P0DMS8); assay: Agonist activity at Homo sapiens (human) adenosine A3 receptor expressed in CHO cells relative to NECA; assay type: cell-based
T7 sequence (whole entry): T5 sequence (P0DMS8 whole entry)

[9] = biological target: T4, Adenosine receptor A2a; assay: Agonist activity at Homo sapiens (human) adenosine A2a receptor expressed in CHO cells; assay type: functional, cell-based

T4 sequence (P29274 whole entry): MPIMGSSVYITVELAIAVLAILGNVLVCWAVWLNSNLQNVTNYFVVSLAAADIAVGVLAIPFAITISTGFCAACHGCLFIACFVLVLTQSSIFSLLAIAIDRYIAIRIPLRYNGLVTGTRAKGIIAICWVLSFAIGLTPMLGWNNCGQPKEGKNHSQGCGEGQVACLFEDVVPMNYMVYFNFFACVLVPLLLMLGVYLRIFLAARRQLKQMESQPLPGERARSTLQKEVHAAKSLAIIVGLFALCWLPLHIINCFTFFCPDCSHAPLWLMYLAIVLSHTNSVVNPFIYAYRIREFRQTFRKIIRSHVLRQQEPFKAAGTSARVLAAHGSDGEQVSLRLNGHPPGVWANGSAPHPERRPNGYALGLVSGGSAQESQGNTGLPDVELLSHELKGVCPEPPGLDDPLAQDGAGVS

O[C@@H]1[C@H](O)[C@@H](CF)O[C@H]1n1cnc2c(NC3CCOCC3)ncnc21
Efficacy [1]: 84%
pKi [2]: 7.60
Ratio [3]: 2.4
Ratio [4]: > 273
Ratio [5]: 212
pKi [6]: 5.60
pKi [7]: < 4.00
Ratio [8]: > 251
pKi [9]: 5.30

OC[C@H]1O[C@@H](n2cnc3c(N[C@H]4CCC[C@@H]4O)ncnc32)[C@H](O)[C@@H]1O [GR-79236]
Efficacy [1]: 106%
pKi [2]: 7.80
Ratio [3]: 1.9
Ratio [4]: 195
Ratio [5]: 445
pKi [6]: 5.60
pKi [7]: 4.50
Ratio [8]: > 190
pKi [9]: 4.60

COC[C@H]1O[C@@H](n2cnc3c(Nc4ccc(O)c(F)c4)ncnc32)[C@H](O)[C@@H]1O [GR-190178]
Efficacy [1]: 12%
pKi [2]: 6.60
Ratio [3]: 12
Ratio [4]: > 348
Ratio [5]: 725
pKi [6]: 5.50
Ratio [8]: > 364
pKi [9]: < 4.00
